Data from patent US8961759B2, “Device and method for mitochondrial membrane potential assessment” (priority 2011, dated 2015).

Tests used:
[1] = test system: human mitochondria (Heb7A); assay: Mitochondrial membrane potential assay with sensor device 1000, substrates and inhibitors added (FIG. 12); assay type: cell-based; settings: isolated Heb7A mitochondria in respiration buffer, about 10 μM TPP+, sequential additions
Procedure: The voltmeter was linked to the computer via a GPIB interface (National Instrument, GPIB-USB-HS) for data communication. The voltage signal from the voltmeter was acquired using Labview software, so that simultaneous monitoring of the mitochondrial membrane potential could be achieved.
The evaluation of the mitochondrial membrane potential was performed with human mitochondria (Heb7A) in respiration buffer (225 mM mannitol, 75 mM sucrose, 10 mM KCl, 10 mM Tris-HCl, 5 mM KH2PO4, pH 7.2). The measurements were repeated 4 times with freshly prepared mitochondria to confirm the performance and the reproducibility of the sensor. […] 25 ng of isolated mitochondria in 85 μL was used for the test resulting in a final concentration of 0.29 ng/μL.
FIG. 11 illustrates an image of a complete sensor device 1000 showing the reference electrode 1015 and working electrode 1016 with arrows. The sensing chamber was filled with an initial volume of 71 μL respiration buffer. Once the plot baselined to zero, a 100 μM TPP^+Cl^− solution was added to provide a working concentration. The working concentration of TPP^+ was kept at about 10 μM to prevent inhibition of respiration. After stabilization, isolated mitochondria (5 ng μL/1) were added to the sensing chamber 1011.

[2] = compared with DDA+; cited from earlier work
[3] = value given for Equation 3; cited from earlier work

Row | Compound | change in the magnitude of ΔΨm after addition [1] | diffusion coefficient through mitochondrial membranes relative to other cations such as DDA+ [2] | partition coefficient, binding to the external face of the inner membrane (Ko) [3]
1 | O=C(O)CCC(=O)O [succinate] | increase the magnitude of ΔΨm | – | –
2 | O=C(O)CC(=O)O [malonate] | slow decrease in the magnitude of ΔΨm | – | –
3 | C=C(C)[C@H]1Cc2c(ccc3c2O[C@@H]2COc4cc(OC)c(OC)cc4[C@@H]2C3=O)O1 [Rot] | slow decline in the magnitude of ΔΨm | – | –
4 | c1ccc([P+](c2ccccc2)(c2ccccc2)c2ccccc2)cc1 [TPP^+, tetraphenylphosphonium] | – | 15 times faster | 14.3 µL/mg
